Assay results reported in PubChem BioAssay (NCI).
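Values below derive from 48-hour exposures of cells grown in 96-well plates, with endpoints linearly interpolated between the two concentrations bracketing the appropriate inhibition level. TGI: total growth inhibition.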

Legend:
Experiment in all cases: NCI-60 cell line screen, 48 h
[1] = system: A498 renal
[2] = system: ACHN renal
[3] = system: COLO 205 colon
[4] = system: HCC-2998 colon
[5] = system: HCT-116 colon
[6] = system: HCT-15 colon
[7] = system: HOP-62 NSCLC
[8] = system: IGROV1 ovarian
[9] = system: KM12 colon
[10] = system: MOLT-4 leukemia
[11] = system: NCI-H460 lung
[12] = system: NCI/ADR-RES ovarian
[13] = system: OVCAR-8 ovarian
[14] = system: SK-MEL-2 melanoma
[15] = system: SN12C renal
[16] = system: T-47D breast
[17] = system: UACC-62 melanoma
[18] = system: HT29 colon
[19] = system: MALME-3M melanoma
[20] = system: TK-10 renal

Row | SMILES | TGI [1] [µM] | TGI [2] [µM] | TGI [3] [µM] | TGI [4] [µM] | TGI [5] [µM] | TGI [6] [µM] | TGI [7] [µM] | TGI [8] [µM] | TGI [9] [µM] | TGI [10] [µM] | TGI [11] [µM] | TGI [12] [µM] | TGI [13] [µM] | TGI [14] [µM] | TGI [15] [µM] | TGI [16] [µM] | TGI [17] [µM] | TGI [18] [µM] | TGI [19] [µM] | TGI [20] [µM]
1 | N#C/C(C(=O)Nc1ccccc1)=C(/N)N1CCOCC1 | > 100 | > 100 | > 100 | > 100 | > 100 | > 100 | > 100 | > 100 | > 100 | > 100 | > 100 | > 100 | > 100 | > 100 | > 100 | > 100 | > 100 |  |  | 
2 | CC(C)C1OC23CCCCC2C(C#N)(C#N)C1(C#N)C(=N)O3 (stereo unspecified) | 60 | > 100 | 33.5 | 29.6 | 39.8 | 23.5 |  |  |  | > 100 | 32 | > 100 | 49.8 | 76 | 31.4 | 71.7 | 58 | 43.8 | 39.6 | 48.4
3 | C=C(C)C(CC=C(C)C)CC12CC(CC=C(C)C)C(C)(C)C(CC=C(C)C)(C(=O)C(Cc3ccc(O)c(O)c3)=C1O)C2=O (stereo unspecified) | > 100 | > 100 | > 100 | > 100 | > 100 | > 100 | > 100 | > 100 | > 100 | > 100 | > 100 | > 100 | > 100 |  |  | > 100 | > 100 | > 100 | > 100 | > 100
4 | C=C1C[C@@H]2O[C@H]3[C@H]4[C@@H](C[C@@H](C)[C@@H](OC(C)=O)[C@H]42)[C@@H](C)CO[C@@]3(C)[C@H](OC(C)=O)C[C@H]1O | > 100 | > 100 | > 100 | > 100 | > 100 | > 100 |  | > 100 | > 100 | 85.6 | > 100 | > 100 | > 100 | > 100 | > 100 | > 100 | > 100 | > 100 | > 100 | > 100
5 | Cc1nc2ccccc2c(=O)n1NC(=O)c1ccc(CS)cc1 | 40.8 | 27 | 62.9 | 45.8 | 16.9 | > 100 | 42.4 | 27.2 | 63.7 | 12.3 | 60.4 | > 100 | > 100 |  | 70.8 | 87.6 |  | > 100 | 69.9 | 
6 | S=C(NCc1ccccc1)c1nc[nH]c1C(=S)NCc1ccccc1 |  | 7.51 | 12.9 | 23.6 | 17.9 | 33.6 | 26.2 | 19.8 | 20 | 25.4 | 18.7 | 16.3 | 18.8 | 22.2 | 25 | 17.4 | 13.4 | 22.7 | 24.6 | 23.9
7 | COc1ccc(N=C2SC(=N/N=c3\sc4ccccc4n3C)SC2=Nc2ccc(OC)cc2)cc1 |  | > 100 | > 100 | > 100 | > 100 | > 100 | > 100 | > 100 | > 100 | > 100 | > 100 | > 100 | > 100 | > 100 | > 100 | > 100 | > 100 | > 100 | > 100 | > 100
8 | Cc1cc2nc3c(C#N)c(-c4ccccc4)cc(Nc4ccc(Cl)cc4)n3c2cc1C | > 100 | > 100 | > 100 | > 100 | > 100 | > 100 | > 100 |  | > 100 |  | > 100 | > 100 | > 100 | > 100 | > 100 | > 100 |  |  | > 100 | > 100
9 | CC1(CCCO)CCCCCC(C)(CCCO)C1=O (stereo unspecified) | > 100 | > 100 | > 100 | > 100 | > 100 | > 100 | > 100 | > 100 | > 100 | > 100 | > 100 | > 100 | > 100 | > 100 | > 100 | > 100 | > 100 | > 100 | > 100 | 
10 | CC(=O)OCc1cc(CCC(=O)NCCNc2c3ccccc3nc3ccccc23)cc(COC(C)=O)c1O[Si](C)(C)C(C)(C)C | 6.1 | 30.6 | 15.9 |  | 31.1 | 33.3 | 32.5 | 27.6 | 15.4 | 5.25 | 21.6 | 45.9 | 39.9 | 23.8 | 3.38 | 5.73 | 19.5 | 7.38 | 25.6 | 23.2
11 | CCSc1n/c(=C\c2ccco2)c2nnnn12 | > 100 | > 100 | > 100 | > 100 | > 100 | > 100 | > 100 | > 100 | > 100 | > 100 |  | > 100 | > 100 | > 100 | > 100 | > 100 | > 100 | > 100 | > 100 | > 100
12 | CN1C(=O)N/C(=C\c2ccc(S(=O)(=O)NN)cc2)C1=O | > 100 | > 100 | > 100 | > 100 | > 100 | > 100 | > 100 | > 100 | > 100 | > 100 |  | > 100 | > 100 | > 100 | > 100 | > 100 | > 100 | > 100 | > 100 | > 100
13 | CC(C)(C)OC(=O)NCC(O)CNC(=O)OC(C)(C)C | > 100 | > 100 | > 100 | > 100 | > 100 | > 100 | > 100 | > 100 | > 100 | > 100 | > 100 | > 100 | > 100 |  | > 100 | > 100 | > 100 |  | > 100 | > 100
